The values below come from patent publication US8324188B2, “Combinations of ET-18-O-CH3and anti-cancer agents for the treatment of cancer” (priority 2006, dated 2012).

Values joined by “and” are separate entries in the source; they are usually repeats but may differ in a detail not shown here. Equal values may be shown once.

Test [1] relates to A431. The following applies: mean ± SD from three independent experiments, read-out: ED50 values for induction of apoptosis; cited from earlier work.
The test system of test [2] is HeLa. The following applies: mean ± SD from three independent experiments, read-out: ED50 values for induction of apoptosis; cited from earlier work.
Test [3] deals with NCI-H460 (FAS positive). Description: WST-1 proliferation assay, NCI-H460. The class given is cell-based, human. The following applies: NCI-H460; single agent, per experiment line. As to the method: (§1) 2000 cells were plated in each well of 96-well flat bottom plates, and incubated overnight at 37 °C in 5% CO2. The growth of plated cells was measured by adding […] of WST-1 reagent (Roche Applied Sciences, Germany) to 3 control wells and measuring the absorbance at 650 nm and at 450 nm, respectively, with a SpectraMax250 plate reader. […] After this incubation, VVST-1 reagent was added to the wells and OD650-OD450 values were calculated as before. six wells were assayed for each conditions and standard deviation was determined: all experiments were performed at least three times independently. […] DDP and GMZ were both purchased from Sigma-aldrich Corp., St. Louis, Mo., USA. The following cell lines were used: A549 (FAS negative), NCI-H460 (FAS positive), and HCC827 (FAS positive), all obtained from the ATTC, Rockville, Md., USA.

The subject of test [4] is U87MG. The experiment in a line: WST-1 proliferation assay, U87MG. The settings on record: Homo sapiens, U-87 MG. The class given is cell-based, human. The method, then:
(§2) AP-121 was prepared as 5 mM stock solution in distilled sterile water, Temozolomide (TMZ) (Haorui Pharma-Chem, Inc., Edison, N.J.) was prepared as 100 mM in sterile filtrated DMSO; Adriamycin (ADR) (Sigma) was prepared as 1 mM in distilled sterile water; Camptothecin (CTP) (Sigma) was prepared as 10 mM solution in 0.1 N NaOH; Tarceva (Proteinkinase, Germany) was prepared as 5 mM solution in sterile DMSO. All compound stocks were kept at −20° C. 2000 cells were plated in each well of 96-well flat bottom plates, and incubated overnight at 37 °C in 5% CO2. The growth of plated cells was measured by adding […] of WST-1 reagent (Roche Applied Sciences, Germany) to 3 control wells and measuring the absorbance at 650 nm and at 450 nm, respectively, with a SpectraMax250 plate reader. […] After this incubation, VVST-1 reagent was added to the wells and OD650-OD450 values were calculated as before. six wells were assayed for each conditions and standard deviation was determined: all experiments were performed at least three times independently. […] Six different concentrations of each drug were used in combinations index measurements and compared to +/− cells, and compared to controls without compound.
In general terms: Tetrazolium assays rely on reduction of a dye to a coloured formazan, in cell work by metabolically active cells.

Test [5] deals with A172. Description: WST-1 proliferation assay, A172. The class given is cell-based, human. The settings on record: Homo sapiens, A 172. As to the method:
as §2

For test [6], the system named is U118MG. Description: WST-1 proliferation assay, U118MG. The settings on record: Homo sapiens, U-118-MG. The class given is cell-based, human. The method, then:
as §2, with “compound. Each combination was repeated 6 times at 2 different time points (24 and 96 hours), each of the above experiments was repeated 3 times to obtain valid results.” for “compound.”

Test [7] relates to LN-18. Description: WST-1 proliferation assay, LN-18. Format: cell-based. The settings on record: Homo sapiens. The method, then: 2000 cells were plated in each well of 96-well flat bottom plates, and incubated overnight at 37 °C in 5% CO2. The growth of plated cells was measured by adding […] of WST-1 reagent (Roche Applied Sciences, Germany) to 3 control wells and measuring the absorbance at 650 nm and at 450 nm, respectively, with a SpectraMax250 plate reader. […] After this incubation, VVST-1 reagent was added to the wells and OD650-OD450 values were calculated as before. six wells were assayed for each conditions and standard deviation was determined: all experiments were performed at least three times independently. […] Six different concentrations of each drug were used in combinations index measurements and compared to +/− cells, and compared to controls without compound.

In test [8] the test system is LN-229. Description: WST-1 proliferation assay, LN-229. Format: cell-based. The following applies: Homo sapiens. The method, then: 2000 cells were plated in each well of 96-well flat bottom plates, and incubated overnight at 37 °C in 5% CO2. The growth of plated cells was measured by adding […] of WST-1 reagent (Roche Applied Sciences, Germany) to 3 control wells and measuring the absorbance at 650 nm and at 450 nm, respectively, with a SpectraMax250 plate reader. If the OD650-OD450 values were above 0.5, the remainder of the plate was used for incubation with AP-121, other pharmacological agents or solvent control for 96 hours.
(§3) After this incubation, VVST-1 reagent was added to the wells and OD650-OD450 values were calculated as before. six wells were assayed for each conditions and standard deviation was determined: all experiments were performed at least three times independently. After elucidation of individual IC50 values for each compound, the simultaneous combination treatment of AP-121 and the chemotherapeutic agent at their IC50 ratio was performed; combination index (CI) was determined by Calcusyn software package (Biosoft, Ferguson, Mo.). Data were evaluated by calculating the means of the combination index (CI), where a CI of <0.3 indicates a strong synergistic effect, 0.3<CI<0.7 a synergistic effect, 0.7<CI<0.9 moderate synergy, 0.9<CI<1 additive effect and CI>1 antagonistic effect, respectively.
For the AP-121 cell proliferation drug combination measurements, the ED50 was determined for each drug. Six different concentrations of each drug were used in combinations index measurements and compared to +/− cells, and compared to controls without compound. Each combination was repeated 6 times at 2 different time points (24 and 96 hours), each of the above experiments was repeated 3 times to obtain valid results.

Test [9] has as its system T98G. The experiment in a line: WST-1 proliferation assay, T98G. Format: cell-based. The settings on record: Homo sapiens. The method, then: as §2
Test [10] relates to LNCaP androgen-sensitive human prostate adenocarcinoma cells. Description: Apo-ONE Homogenous Caspase-3/7 Assay in LNCaP cells. The class given is cell-based. The settings on record: AD + R1881, no CHEM. The method, then:
FIG. 1. Depicts the in vitro effects of 1-O-octadecyl-2-O-methyl-glycero-3-phosphocholine (final concentration 10 μM), (ionizing) radiation (absorbed dose of 5 Gray units; indicated as “RT”), and a combination thereof on programmed cell death (apoptosis) and the survival rate of LNCaP androgen-sensitive human prostate adenocarcinoma cells. Apoptosis was determined using the Apo-ONE™ Homogenous Caspase-317 Assay, Promega, Inc., Madison, Wis., USA according to the manufacturers instructions. The percentage of living cancer cells was estimated by means of trypan blue dye exclusion as described (Freshney, R. I. (1994) Culture of Animal Cells: A Manual of Basic Technique. 3rd Ed. Wiley-Liss. New York. USA). The cells were exposed to radiation six hours after (FIG. 1A), concomitantly with (FIG. 1B), or six hours before administration of 1-O-octadecyl-2-O-methyl-glycero-3-phospho-choline (FIG. 1C). The caspase assay was performed 12 hours after exposure to radiation. The respective data shown represent the average of two independent experiments.
First, the in vitro effects of 1-O-octadecyl-2-O-methyl-glycero-3-phosphocholine, (ionizing) radiation, and a combination thereof on programmed cell death (apoptosis) and the survival rate of LNCaP androgen-sensitive human prostate adenocarcinoma cells were measured. The LNCaP cell line was established from a metastatic lesion of the adenocarcinoma. The cells were treated with a final concentration of 10 μM 1-O-octadecyl-2-O-methyl-glycero-3-phosphocholine and (ionizing) radiation corresponding to an absorbed dose of 5 Gray units.
Apoptosis was determined using the Apo-ONE™ Homogenous Caspase-3/7 Assay, Promega, Inc., Madison, VV1, USA according to the manufacturers instructions. The percentage of living tumor cells was estimated by means of trypan blue dye exclusion as described (Freshney, R. I. (1994) Culture of Animal Cells: A Manual of Basic Technique. 3rd Ed. Wiley-Liss. New York. USA)
The cells were exposed to radiation six hours after (FIG. 1A), concomitantly with (FIG. 1B), or six hours before administration of 1-O-octadecyl-2-O-methyl-glycero-3-phospho-choline (FIG. 1C). The caspase assay was performed 12 hours after exposure to radiation. The respective data shown represent the average of two independent experiments.
(§4) In a further approach, 10 μM 1-O-octadecyl-2-O-methyl-glycero-3-phosphocholine (final concentration; “CHEM”) and (ionizing) radiation (5 Gray units; “RT”) were administered simultaneously to the LNCaP cells but the subsequent incubation period was extended to 24 hours. Apoptosis was measured using the Apo-ONE™ Homogenous Caspase-3/7 Assay as described above and expressed as relative fluorescence units (RFLU). The percentage of apoptotic cells was determined by flow cytometric analysis of annexin V-PE positive-stained and 7-AAD (7-Amino ActinomycinD) negative-stained cells (both purchased from BD Biosciences, San Jose, Calif., USA) according to established standard protocols. The data represent means±SEM from three independent experiments.
(§5) Apoptosis was measured using the Apo-ONE™ Homogenous Caspase-3/7 Assay as described above and expressed as relative fluorescence units (RFLU). The percentage of apoptotic cells was determined via annexin V-PE/7-AAD staining as described above. The caspase-317 assay and annexin staining were performed 22 hours after CHEM treatment.

Test [11] concerns LNCaP cells. Description: flow cytometric analysis of annexin V-PE positive / 7-AAD negative LNCaP cells. The class given is cell-based, human. The settings on record: AD + R1881, no CHEM. The method, then: as §4
Next, the interaction of 1-O-octadecyl-2-O-methyl-glycero-3-phosphocholine administration (“CHEM”) and androgen deprivation (“AD”) was investigated. LNCaP cells were deprived of androgen for two days by charcoal absorption of serum according to established procedures well known in the art. CHEM was added in a final concentration of 5 μM and 10 μM, respectively.
as §5
For orientation: A flow cytometer gives signals particle by particle.

Test [12] concerns HCC827 (FAS positive). Description: WST-1 proliferation assay, HCC827. Format: cell-based, human. The settings on record: single agent, per experiment line. As to the method: as §1
For test [13], the system named is brain tumor cell lines U87MG, A172, LN-18, LN-229, U118MG, and T98G. Description: WST-1 proliferation assay, summaries over the brain tumor cell line panel. The settings on record: together with AP-121; all three cell lines (U87MG, A172, U118MG). The class given is cell-based, human. As to the method: As a biological test panel, we selected the brain tumor cell lines U87MG, A172, LN-18, LN-229, U118MG, and T98G that have different levels of mutations in p53 and PTEN as well as FAS receptor expression:
2000 cells were plated in each well of 96-well flat bottom plates, and incubated overnight at 37 °C in 5% CO2. The growth of plated cells was measured by adding […] of WST-1 reagent (Roche Applied Sciences, Germany) to 3 control wells and measuring the absorbance at 650 nm and at 450 nm, respectively, with a SpectraMax250 plate reader. […]
as §3, with “respectively. […]” for “respectively.”

For `CCCCCCCCCCCCCCCCCCOP(=O)([O-])OC1CC[N+](C)(C)CC1` [Perifosine], the values for the EC50 in test [1] and in test [2] were 23.2 ± 2.7 µM and 9.27 ± 1.8 µM, respectively.

On to `Nc1ccn([C@@H]2O[C@H](CO)[C@@H](O)C2(F)F)c(=O)n1` [GMZ, gemicitabin, reference compound], for which, in test [3], the IC50 – broadly, the midpoint of a concentration-inhibition curve – was 0.003 µM and 0.006 µM.

For the molecule `CC[C@@]1(O)C(=O)OCc2c1cc1n(c2=O)Cc2cc3ccccc3nc2-1` [CPT, Camptothecin], the IC50 amounted to 0.04 µM in test [4]; 0.02 µM in [5]; 0.004 µM in test [6]; 0.04 µM in [7]; 0.02 µM in [8]; 0.02 µM in test [9].

Take `C[C@]1(O)CC[C@H]2[C@@H]3CCC4=CC(=O)CCC4=C3C=C[C@@]21C` [R1881, reference compound]: the “Caspase-3/7 activity (RFLU)” value in test [10] amounted to 130 RFLU. The “% Annexin V-PE pos. cells” value in [11] was found to be 7.0%.

Take `[NH2][Pt]([NH2])([Cl])[Cl]` [DDP, cisplatinum, reference compound]: the half-inhibitory concentration (IC50) in test [3] was 1.3 µM; in test [12], 3.4 µM and 3.5 µM.

On to `Cn1nnc2c(C(N)=O)ncn2c1=O` [TMZ, Temozolomide], for which the IC50 in test [4] was 425 µM; in [5], 38.3 µM; in test [6] it was 382 µM; in test [7], 554 µM; in test [8], 278 µM; in [9], 608 µM. Moreover, the effect of combination result in [13] was “strong synergistic effect (a CI of <0.3 indicates a strong synergistic effect)”.

On to `CCCCCCCCCCCCCCCCOP(=O)([O-])OCC[N+](C)(C)C` [HePC], for which the EC50 in [1] is 17.3 ± 3 µM; in [2], 8.17 ± 0.4 µM.

In the case of `C#Cc1cccc(Nc2ncnc3cc(OCCOC)c(OCCOC)cc23)c1` [Tarceva], the IC50 in test [4] was 5.9 µM; in test [5], 18.8 µM; in test [6], 18.8 µM; in test [7], 20 µM; in test [8], 3.9 µM; in [9] it was 14.4 µM.

On to `COc1cccc2c1C(=O)c1c(O)c3c(c(O)c1C2=O)C[C@@](O)(C(=O)CO)C[C@@H]3O[C@H]1C[C@H](N)[C@H](O)[C@H](C)O1` [ADR, Adriamycin], for which the IC50 in test [4] was determined as 0.11 µM; in test [5], 0.07 µM; in test [6], 0.12 µM; in [7] it was 0.09 µM; in test [8] it was 0.13 µM; in test [9], 0.17 µM.
